From patent publication US8563261B2, “Method of diagnosing and treating interstitial cystitis” (The Trustees of the University of Pennsylvania, priority 2009, dated 2013)
Entries after “also recorded” stand apart in the source; their conditions may differ.

What was measured:
[1] = test system: cultured urothelial cells; assay: Click-iT EdU assay of newly synthesized DNA; format: cell-based; details: ET-1 10 nM (25 ng/ml) vs control
Description: Click-iT EdU assay (Invitrogen) was used to detect and quantify newly synthesized DNA. […] In Click-iT assay, EdU can be detected by green fluorescent dye and nuclei can be detected by blue fluorescent dye. Using fluorescent microplate reader (Synergy2, BioTek) both green and blue fluorescent signal were detected and quantified as shown in the bar graph of FIG. 3).

[2] = test system: rabbit primary urothelial cells; details: ET-1 at 20 μM
Description: Briefly, explanted epithelial cells propagated from fresh biopsy specimens are grown in DMEM-F12 with 10% heat-inactivated fetal bovine serum, 1% antibiotic/antimycotic, 1% L-glutamine, 1.0 unit/ml insulin (all from Sigma), and 5 μg/ml human epidermal growth factor at 37° C. in a humidified atmosphere of 5% CO2 and 95% air. […] Cell proliferation is assessed also by ^3H-thymidine incorporation and by cell counting using a haemocytometer. ET-1 samples are diluted at varying concentrations in serum-free MEM (containing only glutamine and antibiotics) and applied to cells. Control cultures receive only the vehicle. Cells are fed with serum-free medium for the proliferation assay.
Cultures are exposed to 1 μCi per well ^3H-thymidine (1 Ci=37 GiBg) for 4 hrs and trypsinized, sedimented by brief centrifugation (3,000 rpm for 10 min) and the cell pellets are washed with a buffer containing cold thymidine and the radioactivity determined using a scintillation counter. The ^3H-thymidine incorporation is expressed as a mean decrease in cpm of >2 SD from the mean of control cells for each plate. […] After developing the autoradiographs in D-19 (15° C.) and fixation, culture plates are stained with H &E. Cultures are examined under a light microscope and the number of cells showing silver grains in the nuclei from 10 selected fields on the culture plate are counted. […]

[3] = test system: human primary urothelial cells; assay: growth of cultured human primary urothelial cells (proliferation assay); format: cell-based; details: 20 μM ET-1
Description: Control cultures receive only the vehicle.

**Q.** What does the source list for `CC[C@H](C)[C@H](NC(=O)[C@H](CC(=O)O)NC(=O)[C@H](CC(C)C)NC(=O)[C@H](Cc1c[nH]cn1)NC(=O)[C@@H]1CSSC[C@H](N)C(=O)N[C@@H](CO)C(=O)N[C@H]2CSSC[C@H](NC(=O)[C@H](CCC(=O)O)NC(=O)[C@H](CCCCN)NC(=O)[C@H](CC(=O)O)NC(=O)[C@H](CCSC)NC(=O)[C@H](CC(C)C)NC(=O)[C@H](CO)NC(=O)[C@H](CO)NC2=O)C(=O)N[C@@H](C(C)C)C(=O)N[C@@H](Cc2ccc(O)cc2)C(=O)N[C@@H](Cc2ccccc2)C(=O)N1)C(=O)N[C@H](C(=O)N[C@@H](Cc1c[nH]c2ccccc12)C(=O)O)[C@@H](C)CC` [ET-1, Endothelin-1]?
**A.** EdU staining (newly synthesized DNA) in cultured urothelial cells [1]: significant decrease; inhibition of growth of rabbit primary urothelial cells [2]: 30-40%; effect on cell growth of cultured human urothelial cells [3]: inhibited; also recorded: inhibition
